# Active and inactive are the calls of the source. The calls are words filed in the database; no cut-off is given here.
# How the values were obtained:
# [1] = system: Mus musculus; experiment: Induction of hypothermia in CD-1 mouse assessed as reduction in body temperature at 20 mg/kg, ip administered for 5 days by thermometric method; assay type: functional, organism-based
# [2] = system: Mus musculus; experiment: Effect on FADD in CD-1 mouse at 20 mg/kg, ip administered for 5 days and measured after 1 hr of last dosage by Westernblot analysis; assay type: functional, organism-based
# [3] = biological target: Voltage-gated inwardly rectifying potassium channel KCNH2 (Homo sapiens, UniProt Q12809); experiment: Inhibition of recombinant human ERG expressed in CHO cells by patch clamp assay; assay type: cell-based
# Sequence of Voltage-gated inwardly rectifying potassium channel KCNH2 (Q12809 whole entry): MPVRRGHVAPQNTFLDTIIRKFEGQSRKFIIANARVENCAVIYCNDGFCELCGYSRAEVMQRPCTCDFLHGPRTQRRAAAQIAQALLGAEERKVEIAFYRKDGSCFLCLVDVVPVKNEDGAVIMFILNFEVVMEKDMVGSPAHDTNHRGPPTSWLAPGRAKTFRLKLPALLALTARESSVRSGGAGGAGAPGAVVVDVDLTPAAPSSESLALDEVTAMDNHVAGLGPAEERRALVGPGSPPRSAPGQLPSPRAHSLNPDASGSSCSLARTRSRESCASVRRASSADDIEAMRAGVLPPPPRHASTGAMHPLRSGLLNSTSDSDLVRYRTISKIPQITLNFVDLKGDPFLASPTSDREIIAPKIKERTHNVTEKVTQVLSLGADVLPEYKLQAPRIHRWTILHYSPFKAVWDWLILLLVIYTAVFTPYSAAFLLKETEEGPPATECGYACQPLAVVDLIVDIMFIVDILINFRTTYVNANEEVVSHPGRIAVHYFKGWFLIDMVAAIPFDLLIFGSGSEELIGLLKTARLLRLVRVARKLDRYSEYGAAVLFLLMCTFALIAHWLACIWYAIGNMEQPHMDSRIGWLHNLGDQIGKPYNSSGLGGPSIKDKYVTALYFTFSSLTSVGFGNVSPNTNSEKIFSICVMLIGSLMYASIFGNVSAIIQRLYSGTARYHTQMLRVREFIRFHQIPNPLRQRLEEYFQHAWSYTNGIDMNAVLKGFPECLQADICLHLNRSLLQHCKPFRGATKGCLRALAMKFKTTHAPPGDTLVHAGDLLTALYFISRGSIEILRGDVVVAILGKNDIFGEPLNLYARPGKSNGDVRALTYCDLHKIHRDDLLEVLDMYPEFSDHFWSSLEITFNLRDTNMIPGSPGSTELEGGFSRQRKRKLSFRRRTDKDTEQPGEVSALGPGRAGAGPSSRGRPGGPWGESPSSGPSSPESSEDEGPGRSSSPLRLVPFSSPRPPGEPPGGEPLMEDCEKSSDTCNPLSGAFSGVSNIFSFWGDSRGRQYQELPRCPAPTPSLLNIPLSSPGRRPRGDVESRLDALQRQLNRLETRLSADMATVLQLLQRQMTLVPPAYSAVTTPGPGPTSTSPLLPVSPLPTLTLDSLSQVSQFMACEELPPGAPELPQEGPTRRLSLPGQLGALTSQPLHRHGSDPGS
# [4] = Stability in mouse liver microsomes at 5 uM incubated for 60 mins by UPLC-MS/MS analysis; assay type: ADME, Microsome; details: 1 h
# [5] = biological target: Nischarin (Homo sapiens, UniProt Q9Y2I1); experiment: Displacement of [3H]clonidine from I1IR in human brain frontal cortex in presence of adrenaline incubated for 45 mins by liquid scintillation spectrometry; assay type: tissue-based
# Sequence of Nischarin (Q9Y2I1 whole entry): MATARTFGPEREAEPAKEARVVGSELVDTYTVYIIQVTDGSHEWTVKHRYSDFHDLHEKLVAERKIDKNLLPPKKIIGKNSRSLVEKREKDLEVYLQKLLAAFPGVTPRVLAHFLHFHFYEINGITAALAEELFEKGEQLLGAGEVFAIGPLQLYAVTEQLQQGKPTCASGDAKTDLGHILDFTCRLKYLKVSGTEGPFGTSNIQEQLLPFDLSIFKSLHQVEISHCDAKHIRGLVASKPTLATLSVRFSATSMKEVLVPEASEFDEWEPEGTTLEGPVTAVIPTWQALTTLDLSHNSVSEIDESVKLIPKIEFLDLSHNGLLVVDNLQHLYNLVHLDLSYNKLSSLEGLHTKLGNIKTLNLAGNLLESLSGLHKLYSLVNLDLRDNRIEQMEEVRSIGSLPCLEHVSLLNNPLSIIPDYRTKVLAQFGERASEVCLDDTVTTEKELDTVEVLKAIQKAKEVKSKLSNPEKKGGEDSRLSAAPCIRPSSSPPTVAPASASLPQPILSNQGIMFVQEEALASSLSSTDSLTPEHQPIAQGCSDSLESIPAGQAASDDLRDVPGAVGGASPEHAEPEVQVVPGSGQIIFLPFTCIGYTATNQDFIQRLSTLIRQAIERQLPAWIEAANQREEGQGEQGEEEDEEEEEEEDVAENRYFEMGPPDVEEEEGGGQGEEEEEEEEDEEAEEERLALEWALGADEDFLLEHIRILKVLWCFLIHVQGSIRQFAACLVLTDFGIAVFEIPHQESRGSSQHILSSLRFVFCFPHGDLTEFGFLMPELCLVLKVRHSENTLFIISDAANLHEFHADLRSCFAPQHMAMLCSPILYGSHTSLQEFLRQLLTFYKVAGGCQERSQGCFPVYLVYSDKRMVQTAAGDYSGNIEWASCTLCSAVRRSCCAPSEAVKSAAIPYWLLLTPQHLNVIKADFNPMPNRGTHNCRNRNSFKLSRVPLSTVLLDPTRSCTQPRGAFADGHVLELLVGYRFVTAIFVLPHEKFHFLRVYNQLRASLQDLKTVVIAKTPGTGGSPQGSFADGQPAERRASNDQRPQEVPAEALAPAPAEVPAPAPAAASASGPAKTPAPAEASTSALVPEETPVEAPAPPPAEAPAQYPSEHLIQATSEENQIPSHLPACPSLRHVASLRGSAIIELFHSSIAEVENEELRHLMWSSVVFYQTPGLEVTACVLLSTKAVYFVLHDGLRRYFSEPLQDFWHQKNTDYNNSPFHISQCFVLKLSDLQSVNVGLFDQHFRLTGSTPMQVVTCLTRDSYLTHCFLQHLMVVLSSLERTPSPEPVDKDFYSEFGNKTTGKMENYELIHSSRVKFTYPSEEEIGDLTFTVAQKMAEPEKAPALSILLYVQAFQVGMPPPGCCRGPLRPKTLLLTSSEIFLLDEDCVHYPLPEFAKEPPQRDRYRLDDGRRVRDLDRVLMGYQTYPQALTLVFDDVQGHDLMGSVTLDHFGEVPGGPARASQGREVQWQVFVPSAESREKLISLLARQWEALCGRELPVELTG
# [6] = Stability in human liver microsomes at 5 uM incubated for 60 mins by UPLC-MS/MS analysis; assay type: ADME, Microsome; details: 1 h
# [7] = biological target: Cytochrome P450 2D6 (Homo sapiens, UniProt P10635); experiment: Inhibition of recombinant human CYP2D6 at 10 uM using AMMC as substrate incubated for 5 mins followed by substrate addition by fluorescence based assay; assay type: ADME; details: recombinant enzyme
# Sequence of Cytochrome P450 2D6 (P10635 whole entry): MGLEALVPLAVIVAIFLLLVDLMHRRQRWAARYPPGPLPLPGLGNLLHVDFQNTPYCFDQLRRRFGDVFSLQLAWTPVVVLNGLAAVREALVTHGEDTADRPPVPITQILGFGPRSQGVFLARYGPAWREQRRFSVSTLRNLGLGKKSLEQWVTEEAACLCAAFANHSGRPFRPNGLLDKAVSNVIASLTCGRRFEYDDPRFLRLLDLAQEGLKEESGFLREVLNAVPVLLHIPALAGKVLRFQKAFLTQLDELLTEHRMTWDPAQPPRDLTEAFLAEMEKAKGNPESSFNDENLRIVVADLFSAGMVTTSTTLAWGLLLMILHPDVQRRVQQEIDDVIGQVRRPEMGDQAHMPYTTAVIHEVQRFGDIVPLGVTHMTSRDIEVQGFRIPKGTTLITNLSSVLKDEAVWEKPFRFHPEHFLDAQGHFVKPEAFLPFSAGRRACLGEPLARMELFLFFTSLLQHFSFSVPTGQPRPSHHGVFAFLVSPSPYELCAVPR
# [8] = Solubility of compound in acetonitrile incubated for 2 hrs by nephelometry; assay type: physicochemical
# [9] = system: Mus musculus; experiment: Antineuroinflammatory activity in mouse model of 5xFAD assessed as reduction in Cxcl10 expression at 5 mg/kg, po administered for 4 weeks by qRT-PCR analysis; assay type: functional, organism-based
# [10] = Solubility of compound in methanol incubated for 2 hrs by nephelometry; assay type: physicochemical
# [11] = Effective permeability of compound by PAMPA-BBB assay; assay type: ADME; details: read-out: Peff
# [12] = biological target: T1, Cholecystokinin receptor type A (Homo sapiens, UniProt P32238); experiment: Displacement of [125I]CCK-8s from human CCKA incubated for 60 mins by scintillation counting method
# T1 sequence (P32238 whole entry): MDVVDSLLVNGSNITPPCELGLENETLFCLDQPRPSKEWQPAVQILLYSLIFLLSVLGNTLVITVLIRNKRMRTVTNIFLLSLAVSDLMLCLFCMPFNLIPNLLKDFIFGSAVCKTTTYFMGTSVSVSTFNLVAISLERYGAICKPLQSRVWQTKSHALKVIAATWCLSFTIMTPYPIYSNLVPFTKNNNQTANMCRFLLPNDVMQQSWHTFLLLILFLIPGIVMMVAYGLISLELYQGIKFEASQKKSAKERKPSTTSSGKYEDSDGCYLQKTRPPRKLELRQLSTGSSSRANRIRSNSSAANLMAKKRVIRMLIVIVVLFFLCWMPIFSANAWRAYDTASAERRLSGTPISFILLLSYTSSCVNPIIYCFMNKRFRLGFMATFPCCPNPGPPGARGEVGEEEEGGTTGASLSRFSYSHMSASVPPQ
structure (smiles),measurement,setting,value
CCOP(=O)(OCC)C1(c2ccccc2)N=CC2C(=O)N(c3ccc(F)c(Cl)c3)C(=O)C21 (racemic),T,[1],inactive
same,Activity,[2],inactive
same,inhibition (INH),[3],Not Active
same,Stability,[4],Stable
same,IC50,[5],912 µM
same,Ki,[5],912 µM
same,Stability,[6],Stable
same,inhibition (INH),[7],Not Active
same,solubility,[8],Soluble
same,Activity,[9],Active
same,solubility,[10],Soluble
same,Papp,[11],9.7 ×10⁻⁶ cm/s
same,IC50,[12],5.94 µM
